Experimental data from patent US20220249441A1, “Homodimeric Tobramycin Adjuvant Repurposes Novobiocin as an Effective Antibacterial Agent Against Gram-Negative Bacteria” (priority 2019, published 2022).

Key:
[1] = tested on: A. baumannii ATCC 17978; assay: microbe, parasite or virus in culture; type: cell-based, Acinetobacter baumannii; settings: after 7 days of serial passaging
Experimental: (§1) Development of Resistance Study. […] Tobramycin and colistin were included as controls. At 24-hour intervals, the cultures were assessed for growth. […] This serial passaging was repeated for 8 days.

[2] = tested on: A. baumannii ATCC 17978 and resistant mutants; assay: microbe, parasite or virus in culture; type: cell-based, Acinetobacter baumannii
Experimental: Antimicrobial Susceptibility Assay. The in vitro antimicrobial activity of all compounds/antibiotics against a panel of bacteria was evaluated by microbroth dilution method in accordance with the Clinical and Laboratory Standards Institute (CLSI) guidelines (using ATCC strains as quality control strains) (54). Overnight grown bacterial cultures were diluted in saline to achieve a 0.5 McFarland turbidity, followed by 1:50 dilution in Mueller-Hinton broth (MHB) for inoculation to a final concentration of approximately 5×10^5 CFU/mL. […] The lowest concentration that prevented the visible growth of bacteria was defined as the MIC for each antimicrobial agent. The broth with or without bacterial cells was used as positive or negative control, respectively.
as §1

[3] = tested on: Galleria mellonella; assay: Galleria mellonella tolerability study; type: in vivo; settings: 100 mg/kg single dose; after 96 h (4 days)
Experimental: Galleria mellonella In vivo Larvae-Infection Model. In vivo synergistic effects were determined using Galleria mellonella infection model, as previously described (49). Briefly, larvae were purchased from The Worm Lady Live Feeder (ON, Canada), stored in their natural habitat at 16° C., and used within 10 days of delivery. The larvae (average weight of 250 mg) were used for tolerability and efficacy studies. Tolerability study was performed by injecting a 10 μL aliquot of antimicrobial agents only at concentrations equivalent to 100 mg/kg or 200 mg/kg. The larvae (ten in each group) were incubated at 37° C. and monitored for 96 h. For efficacy studies, the virulence and bacterial load required to kill 100% of the larvae within 24 h (with no treatment) was first determined, which is approximately 10 CFU. Overnight grown culture of respective MDR A. baumannii isolate was standardized to 0.5 McFarland standard and diluted in PBS to a final concentration of 10^3 CFU/mL. A 10 μL aliquot of this solution (˜10 CFU) was injected into each larva and incubated for 3 h at 37° C. […] Larvae treated with 10 μL of PBS or high concentrations of test antibiotics served as negative and positive control, respectively. The larvae were incubated at 37° C. in Petri dishes lined with filter paper and scored for survivability every 6 h for up to 36 h. […]

Colistin
fold change in MIC [1]: 1024 fold
MIC ([2]; Mutant A (seven serial passages, sub-MICs novobiocin)): 8 µg/mL
MIC ([2]; Mutant B (seven serial passages, sub-MICs colistin)): 1024 µg/mL
MIC ([2]; Mutant C (seven serial passages, sub-MICs novobiocin + 7.1 μM compound 1)): 0.031 µg/mL
MIC ([2]; Wild-type A. baumannii ATCC 17978): 0.063 µg/mL
larvae killed (mortality) [3]: 90%
